# Earlier results as cited in US10954181B2, “Process for selectively recovering a phenolic compound from feedstock comprising bio-crude and/or bio-oil” (Research Triangle Institute, priority 2018, dated 2021).
# Settings: 25° C., in water; phenolic compounds present in biocrude
row,Compound,pKa at 25° C. (in water)
1,"Cc1cccc(O)c1C [2,3-dimethylphenol]",10.42
2,"Cc1cc(C)c(O)cc1C [2,4,5-trimethylphenol]",10.57
3,"Cc1cc(C)c(O)c(C)c1 [2,4,6-trimethylphenol]",10.88
4,"Cc1ccc(O)c(C)c1 [2,4-dimethylphneol]",10.6
5,"Cc1cccc(C)c1O [2,6-dimethylphenol]",10.66
6,C=CCc1cc(C)ccc1O [2-allyl-4-methylphenol],10.59
7,CCc1ccccc1O [2-ethylphenol],10.27
8,"Cc1cc(C)cc(O)c1 [3,5-dimethylphenol]",10.38
9,CCc1cccc(O)c1 [3-ethylphenol],9.9
10,Cc1ccc(O)c(O)c1 [4-methylcatechol],9.91
11,CCCc1ccc(O)cc1 [4-propylphenol],9.98
12,CCc1ccc(O)c(OC)c1 [Ethylguaiacol],10.3
13,C=CCc1ccc(O)c(OC)c1 [Eugenol],10.19
14,COc1ccccc1O [Guaiacol],9.98
15,COc1cc(CC(C)=O)ccc1O [Guaiacylacetone],9.88
16,COc1cc(CC(=O)O)ccc1O [Homovanillic acid],4.36
17,O=C(CO)c1ccccc1 [Hydroxyacetophenone],10.16
18,"CCCc1ccc(O)c(OC)c1 [Propylguaiacol (Dihydroeugenol), Propylguaiacol]",10.29
19,Benzenediol (catechol),9.96

# Same assay, conditions: Table 1, chemical information of targeted methoxyphenols
row,Compound,pKa
1,CCc1ccc(O)c(OC)c1 [Ethylguaiacol],10.3
2,COc1ccccc1O [Guaiacol],9.98
3,"CCCc1ccc(O)c(OC)c1 [Propylguaiacol (Dihydroeugenol), Propylguaiacol]",10.29
